From patent US10568879B2 (GALAPAGOS NV, priority 2015, dated 2020)
pIC50: −log10 of the molar value.

What was measured:
human neutrophils = assay: Human neutrophil migration assay; assay type: cell-based; conditions: for pIC50: Homo sapiens, Neutrophil, embelin at EC80 as chemotactic agent, 1 h at 37° C., read-out: Human neutrophil migration IC50
Procedure, shortened: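 Neutrophils freshly isolated from human buffy coats by dextran sedimentation and hypotonic lysis were preincubated with compound for 30 min at room temperature. Chemotaxis then ran in a Transwell system for 1 h at 37° C, 5% CO2. Migrated cells in the lower well were quantified by ATPlite luminescence.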

GPR84 [1] = biological target: T1, GPR84 (Homo sapiens, UniProt Q9NQS5); conditions: literature; cited from earlier work
T1 construct: expressed in transfected cells
T1 sequence (Q9NQS5 whole entry): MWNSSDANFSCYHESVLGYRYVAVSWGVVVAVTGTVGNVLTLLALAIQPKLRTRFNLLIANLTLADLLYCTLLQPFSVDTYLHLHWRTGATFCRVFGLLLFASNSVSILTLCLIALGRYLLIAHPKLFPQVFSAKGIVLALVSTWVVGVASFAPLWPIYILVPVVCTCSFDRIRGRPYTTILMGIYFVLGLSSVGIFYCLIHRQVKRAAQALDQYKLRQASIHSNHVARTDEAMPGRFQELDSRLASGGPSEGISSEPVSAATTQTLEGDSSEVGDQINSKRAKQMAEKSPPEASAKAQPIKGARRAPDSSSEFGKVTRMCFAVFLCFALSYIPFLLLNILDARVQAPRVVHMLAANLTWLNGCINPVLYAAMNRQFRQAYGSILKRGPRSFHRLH

[2] = Chemical stability in aqueous solutions with different pH; assay type: physicochemical; conditions: 2 μM; for % rem. (2 h) pH 1.2 / % rem. (24 h) pH 1.2: pH 1.2 hydrochloric acid buffer; for % rem. (2 h) pH 1.2 / % rem. (2 h) pH 5.0 / % rem. (2 h) pH 7.4 / % rem. (2 h) pH 9.0: 2 h incubation at 37° C.; for % rem. (24 h) pH 1.2 / % rem. (24 h) pH 5.0 / % rem. (24 h) pH 7.4 / % rem. (24 h) pH 9.0: 24 h incubation at 37° C.; for % rem. (2 h) pH 5.0 / % rem. (24 h) pH 5.0: pH 5.0 acetate buffer; for % rem. (2 h) pH 7.4 / % rem. (24 h) pH 7.4: pH 7.4 phosphate buffer; for % rem. (2 h) pH 9.0 / % rem. (24 h) pH 9.0: pH 9.0 Tris buffer
Procedure: This in vitro model is aimed at assessing the stability of a test compound in aqueous solutions with different pH. The decrease in parent compound is assessed by measuring the percentage parent remaining after 2 and 24 h incubation at 37° C.
A 2 mM DMSO stock is made for each test compound starting from dry matter. Then a 80 μM working solution of compound in DMSO is made by diluting the 2 mM DMSO.
The 80 μM working solution is diluted to a final concentration of 2 μM-2.5% DMSO in buffer with the desired pH (pH 1.2: hydrochloric acid buffer, pH 5.0: acetate buffer, pH 7.4: phosphate buffer, pH 9.0: Tris buffer) in 96-well plates with glass inserts (Cat no. 548-0201/548-0202, VWR-Thermo Scientific). Two replicates are run for each buffer solution and each time point.
One set of vials is incubated for 24 h at 200 rpm and another for 2 h at 200 rpm. To stop the reaction after the respective incubation times, 4 volumes of acetonitrile containing the internal standard (stop solution) are added to the reaction solution and the vials are vortexed briefly.
For the 0 h incubation, the stop solution with internal standard is first added to the buffer solution in glass vials and then the working solution of test compound (final concentration: 2 μM-2.5% DMSO) is added.
Propranolol is used as internal standard, but if the mass difference is too low with the test compound(s), another product is selected as internal standard. The concentration of the internal standard is chosen to obtain a peak area half of the average peak area of the test compounds and control at time point 0.
Analysis is performed on an LCMS-MS system (API2000 or API4000). The average of the peak areas of the two replicates from the parent compound at time 0 divided by the peak area of the internal standard is considered to be 100% remaining. The percentage remaining after 2 and 24 h of incubation is calculated for all other peaks and the percentage remaining after 2 and 24 h is reported.

GPR84 [3] = biological target: T1, GPR84; assay: GPR84 [35S]GTPγS binding assay; assay type: biochemical; conditions: 3,3′-diindolylmethane at EC80; membranes from stable cell line over expressing GPR84
Procedure, shortened: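 Antagonist-mode [35S]GTPγS binding on membranes from a GPR84-overexpressing stable line (GDP-preincubated), stimulated with 3,3′-diindolylmethane at EC80. Buffer 20 mM Tris pH 7.5, 5 mM MgCl2, 250 mM NaCl, saponin; 0.1 nM [35S]GTPγS, 90 min at room temperature, SPA bead read-out.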

[4] = test system: RAW264.7 murine macrophage-like cells; conditions: RAW264.7 cells stimulated with LPS; cited from earlier work

| SMILES | neutrophil chemotaxis induced by GPR84 agonists (human neutrophils) | GPR84 agonist activity (GPR84 [1]) | % rem. (2 h) pH 1.2 [2] | % rem. (24 h) pH 1.2 [2] | % rem. (2 h) pH 5.0 [2] | % rem. (24 h) pH 5.0 [2] | % rem. (2 h) pH 7.4 [2] | % rem. (24 h) pH 7.4 [2] | % rem. (2 h) pH 9.0 [2] | % rem. (24 h) pH 9.0 [2] | pIC50 (human neutrophils) | pIC50 (GPR84 [3]) | secretion of interleukin-12 p40 subunit (IL-12 p40) [4] |
| --- | --- | --- | --- | --- | --- | --- | --- | --- | --- | --- | --- | --- | --- |
| c1ccc2c(Cc3c[nH]c4ccccc34)c[nH]c2c1 [3,3′-diindolylmethane, reference compound] | induce neutrophil chemotaxis | some GPR84 agonist activity | – | – | – | – | – | – | – | – | – | – | – |
| CCCCCCCCNc1cc(=O)[nH]c(=O)[nH]1 [6-n-octylaminouracil] | – | some GPR84 agonist activity | – | – | – | – | – | – | – | – | – | – | – |
| COc1cc2c(cc1OC)-c1c(C)c(=O)cc(OC[C@@H]3COCCO3)n1CC2 [Compound 1, 4-[[(2S)-1,4-dioxan-2-yl]methoxy]-9,10-dimethoxy-1-methyl-6,7-dihydrobenzo[a]quinolizin-2-one] | – | – | *** (>80%) | *** (>80%) | *** (>80%) | *** (>80%) | *** (>80%) | *** (>80%) | *** (>80%) | *** (>80%) | 6.30 to 7.00 | 6.30 to 7.00 | – |
| Cc1c2n(c(NCC3CCCO3)cc1=O)CCc1cc(OCC(F)(F)F)ccc1-2 (centres unmarked) [Compound 8, 1-methyl-4-(tetrahydrofuran-2-ylmethylamino)-9-(2,2,2-trifluoroethoxy)-6,7-dihydrobenzo[a]quinolizin-2-one] | – | – | *** (>80%) | *** (>80%) | *** (>80%) | *** (>80%) | *** (>80%) | *** (>80%) | *** (>80%) | *** (>80%) | 7.00 to 11.00 | 6.30 to 7.00 | – |
| COc1ccc2c(c1OC)CCn1c(NCC3CCCO3)cc(=O)c(C)c1-2 (centres unmarked) [Compound 10, 8,9-dimethoxy-1-methyl-4-(tetrahydrofuran-2-ylmethylamino)-6,7-dihydrobenzo[a]quinolizin-2-one] | – | – | *** (>80%) | *** (>80%) | *** (>80%) | *** (>80%) | *** (>80%) | *** (>80%) | *** (>80%) | *** (>80%) | 7.00 to 11.00 | 7.00 to 11.00 | – |
| COc1ccc2c(c1OC)CCn1c(OC[C@@H]3COCCO3)cc(=O)c(C)c1-2 [Compound 12, 4-[[(2S)-1,4-dioxan-2-yl]methoxy]-8,9-dimethoxy-1-methyl-6,7-dihydrobenzo[a]quinolizin-2-one] | – | – | *** (>80%) | *** (>80%) | *** (>80%) | *** (>80%) | *** (>80%) | *** (>80%) | *** (>80%) | *** (>80%) | 6.30 to 7.00 | 6.30 to 7.00 | – |
| Cc1c2n(c(OC[C@@H]3COCCO3)cc1=O)CCc1cc(OCC(F)(F)F)ccc1-2 [Compound 18, 4-[[(2S)-1,4-dioxan-2-yl]methoxy]-1-methyl-9-(2,2,2-trifluoroethoxy)-6,7-dihydrobenzo[a]quinolizin-2-one] | – | – | *** (>80%) | *** (>80%) | *** (>80%) | *** (>80%) | *** (>80%) | *** (>80%) | *** (>80%) | *** (>80%) | 7.00 to 11.00 | 7.00 to 11.00 | – |
| CCCCCCCCCC(=O)O [capric acid] | – | – | – | – | – | – | – | – | – | – | – | – | dose dependently increased |
| CCCCCCCCCCCC(=O)O [lauric acid] | – | – | – | – | – | – | – | – | – | – | – | – | dose dependently increased |
| CCCCCCCCCCC(=O)O [undecanoic acid] | – | – | – | – | – | – | – | – | – | – | – | – | dose dependently increased |
